From PubChem BioAssay (NCI)
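Cells were grown in 96-well plates and exposed to each compound for 48 hours at five concentrations; endpoints were interpolated linearly between bracketing concentrations, or set to the highest concentration if not reached. GI50 marks 50% less growth. The concentration for full growth arrest is given as TGI.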

Tests used:
Test in all cases: NCI anticancer screen, dose series, 48 h
LOX IMVI melanoma = system: LOX IMVI melanoma
UACC-257 melanoma = system: UACC-257 melanoma
IGROV1 ovarian = system: IGROV1 ovarian
XF 498 CNS = system: XF 498 CNS
SNB-19 CNS = system: SNB-19 CNS
HL-60(TB) leukemia = system: HL-60(TB) leukemia
CAKI-1 renal = system: CAKI-1 renal
SW-620 colon = system: SW-620 colon
SF-268 CNS = system: SF-268 CNS
MALME-3M melanoma = system: MALME-3M melanoma
KM12 colon = system: KM12 colon
HOP-62 NSCLC = system: HOP-62 NSCLC
A549 NSCLC = system: A549 NSCLC
OVCAR-8 ovarian = system: OVCAR-8 ovarian
DMS 273 small cell lung = system: DMS 273 small cell lung
CCRF-CEM leukemia = system: CCRF-CEM leukemia
U251 CNS = system: U251 CNS
SK-MEL-5 melanoma = system: SK-MEL-5 melanoma
A498 renal = system: A498 renal
ACHN renal = system: ACHN renal
OVCAR-4 ovarian = system: OVCAR-4 ovarian
TK-10 renal = system: TK-10 renal
OVCAR-5 ovarian = system: OVCAR-5 ovarian
SF-295 CNS = system: SF-295 CNS
RPMI-8226 leukemia = system: RPMI-8226 leukemia
SN12C renal = system: SN12C renal
OVCAR-3 ovarian = system: OVCAR-3 ovarian
MOLT-4 leukemia = system: MOLT-4 leukemia
RXF 393 renal = system: RXF 393 renal
HCC-2998 colon = system: HCC-2998 colon
NCI-H522 lung = system: NCI-H522 lung
UACC-62 melanoma = system: UACC-62 melanoma
EKVX NSCLC = system: EKVX NSCLC
LXFL 529 NSCLC = system: LXFL 529 NSCLC
SF-539 CNS = system: SF-539 CNS
786-0 renal = system: 786-0 renal
M14 melanoma = system: M14 melanoma
HCT-15 colon = system: HCT-15 colon
SK-OV-3 ovarian = system: SK-OV-3 ovarian
NCI-H23 lung = system: NCI-H23 lung
HT29 colon = system: HT29 colon
K-562 leukemia = system: K-562 leukemia
SNB-75 CNS = system: SNB-75 CNS
HOP-92 NSCLC = system: HOP-92 NSCLC
NCI-H460 lung = system: NCI-H460 lung
M19-MEL melanoma = system: M19-MEL melanoma
SK-MEL-2 melanoma = system: SK-MEL-2 melanoma
KM20L2 colon = system: KM20L2 colon
DLD-1 colon = system: DLD-1 colon
UO-31 renal = system: UO-31 renal
COLO 205 colon = system: COLO 205 colon
SK-MEL-28 melanoma = system: SK-MEL-28 melanoma

O=C([CH-]C(=O)C(F)(F)F)c1ccccc1.O=C([CH-]C(=O)C(F)(F)F)c1ccccc1.[O]=[U+2]=[O]
GI50 (LOX IMVI melanoma): 13 µM | TGI (LOX IMVI melanoma): > 100 µM | GI50 (UACC-257 melanoma): 27.3 µM | TGI (UACC-257 melanoma): > 100 µM | GI50 (IGROV1 ovarian): 16.5 µM | TGI (IGROV1 ovarian): > 100 µM | GI50 (XF 498 CNS): 23.8 µM | TGI (XF 498 CNS): 69.9 µM | GI50 (SNB-19 CNS): 4.62 µM | TGI (SNB-19 CNS): > 100 µM | GI50 (HL-60(TB) leukemia): 15.8 µM | TGI (HL-60(TB) leukemia): 78.4 µM | GI50 (CAKI-1 renal): 39 µM | TGI (CAKI-1 renal): > 100 µM | GI50 (SW-620 colon): 27.9 µM | TGI (SW-620 colon): > 100 µM | GI50 (SF-268 CNS): 4.53 µM | TGI (SF-268 CNS): > 100 µM | GI50 (MALME-3M melanoma): 18.6 µM | TGI (MALME-3M melanoma): 47.7 µM | GI50 (KM12 colon): 26 µM | TGI (KM12 colon): 92.6 µM | GI50 (HOP-62 NSCLC): 15.1 µM | TGI (HOP-62 NSCLC): 53.9 µM | GI50 (A549 NSCLC): 27.4 µM | TGI (A549 NSCLC): > 100 µM | GI50 (OVCAR-8 ovarian): 14.1 µM | TGI (OVCAR-8 ovarian): 93.6 µM | GI50 (DMS 273 small cell lung): 7.38 µM | TGI (DMS 273 small cell lung): > 100 µM | GI50 (CCRF-CEM leukemia): 11.4 µM | TGI (CCRF-CEM leukemia): > 100 µM | GI50 (U251 CNS): 5.61 µM | TGI (U251 CNS): > 100 µM | GI50 (SK-MEL-5 melanoma): 17.8 µM | TGI (SK-MEL-5 melanoma): > 100 µM | GI50 (A498 renal): 24.6 µM | TGI (A498 renal): 74.4 µM | GI50 (ACHN renal): 13.6 µM | TGI (ACHN renal): 80.9 µM | GI50 (OVCAR-4 ovarian): 10.4 µM | TGI (OVCAR-4 ovarian): > 100 µM | GI50 (TK-10 renal): 20.4 µM | TGI (TK-10 renal): 64.1 µM | GI50 (OVCAR-5 ovarian): 64.1 µM | TGI (OVCAR-5 ovarian): > 100 µM | GI50 (SF-295 CNS): 20.8 µM | TGI (SF-295 CNS): 86.5 µM | GI50 (RPMI-8226 leukemia): 8.51 µM | TGI (RPMI-8226 leukemia): > 100 µM | GI50 (SN12C renal): 9.1 µM | TGI (SN12C renal): > 100 µM | GI50 (OVCAR-3 ovarian): 18 µM | TGI (OVCAR-3 ovarian): 56.7 µM | GI50 (MOLT-4 leukemia): 19.4 µM | TGI (MOLT-4 leukemia): > 100 µM | GI50 (RXF 393 renal): 16.9 µM | TGI (RXF 393 renal): 45.4 µM | GI50 (HCC-2998 colon): 14.4 µM | TGI (HCC-2998 colon): 61.7 µM | GI50 (NCI-H522 lung): 4.11 µM | TGI (NCI-H522 lung): > 100 µM | GI50 (UACC-62 melanoma): 12.2 µM | TGI (UACC-62 melanoma): 87.9 µM | GI50 (EKVX NSCLC): 22.3 µM | TGI (EKVX NSCLC): 72.9 µM | GI50 (LXFL 529 NSCLC): 7.33 µM | TGI (LXFL 529 NSCLC): > 100 µM | GI50 (SF-539 CNS): 4.13 µM | TGI (SF-539 CNS): > 100 µM | GI50 (786-0 renal): 21.7 µM | TGI (786-0 renal): 89.4 µM | GI50 (M14 melanoma): 19.1 µM | TGI (M14 melanoma): 88.9 µM | GI50 (HCT-15 colon): 7.27 µM | TGI (HCT-15 colon): > 100 µM | GI50 (SK-OV-3 ovarian): 51.4 µM | TGI (SK-OV-3 ovarian): > 100 µM | GI50 (NCI-H23 lung): 4.71 µM | TGI (NCI-H23 lung): 67.7 µM | GI50 (HT29 colon): 28.3 µM | TGI (HT29 colon): 68.2 µM | GI50 (K-562 leukemia): 13.1 µM | TGI (K-562 leukemia): > 100 µM | GI50 (SNB-75 CNS): 28.8 µM | TGI (SNB-75 CNS): 85.8 µM | GI50 (HOP-92 NSCLC): 30.9 µM | TGI (HOP-92 NSCLC): 95.6 µM | GI50 (NCI-H460 lung): 12.6 µM | TGI (NCI-H460 lung): 90.6 µM | GI50 (M19-MEL melanoma): 16.6 µM | TGI (M19-MEL melanoma): > 100 µM | GI50 (SK-MEL-2 melanoma): 28 µM | TGI (SK-MEL-2 melanoma): > 100 µM | GI50 (KM20L2 colon): 19.9 µM | TGI (KM20L2 colon): > 100 µM | GI50 (DLD-1 colon): 7.75 µM | TGI (DLD-1 colon): > 100 µM | GI50 (UO-31 renal): 5.4 µM | TGI (UO-31 renal): > 100 µM | GI50 (COLO 205 colon): 34.5 µM | TGI (COLO 205 colon): > 100 µM | GI50 (SK-MEL-28 melanoma): 9.2 µM | TGI (SK-MEL-28 melanoma): 79.5 µM
